In PMC12662929, “MR2938 relieves DSS-induced colitis in mice through inhibiting NF-κB signaling and improving epithelial barrier” (Marine Life Science & Technology, 2025):

How the values were obtained:
[1] = test system: DSS-induced colitis C57BL/6 mice; test: Acute DSS-induced murine colitis model; format: in vivo, mouse; settings: for body weight: MR2938 50 or 100 mg/kg or 5-ASA 100 mg/kg, oral
Protocol: After 1 week of acclimation, the C57BL/6 mice were randomly divided into the following groups (n = 6/group): control group, model group (DSS), DSS + 5-aminosalicylic acid (5-ASA, positive group, 100 mg/kg), DSS + MR2938 (100 mg/kg) and DSS + MR2938 (50 mg/kg). Colitis was induced by administration of 3% DSS drinking water for 5 consecutive days. Water consumption was monitored daily. At the same time, the mice in each group were given the corresponding agents: 5-ASA (100 mg/kg) and MR2938 (50 mg/kg or 100 mg/kg). The dosages of 5-ASA and MR2938 were adopted based on previous reports and our pilot trial. MR2938 or 5-ASA was dissolved in a mixture of saline and DMSO (95:5) to provide the desired concentrations.
Changes in bodyweight were assessed daily over the 9-day experimental period. On the last day of the experiment, mice were sacrificed, and the entire colon was excised. Colon length was measured and gently washed with physiological saline. Then two pieces with 0.5 cm in length of the distal section were used for histological assessment and immunofluorescence staining. The remaining colon tissue samples were used to determine MPO activity and the concentrations of cytokines.
Distal colons were harvested, fixed in 4% paraformaldehyde, and embedded in paraffin. Five-μm-thick tissue sections were stained with hematoxylin and eosin (HE) for light microscopic examination using a DP73 light microscope (Olympus, Tokyo, Japan). Colonic mucosa damage score was assessed as previously described. To count colonic goblet cells, fixed colonic tissues were also stained in Alcian blue for 10–15 min and dehydrated with 100% alcohol and xylene, followed by image acquisition on a microscope.
The serum was obtained from the collected blood samples through centrifugation at 3500 g for 15 min at 4 °C. A portion of frozen colon samples was homogenized with RIPA lysis buffer (Solarbio, Beijing, China) to extract total proteins. The homogenate was centrifuged at 12,000 × g at 4 °C for 15 min. The protein contents were quantified using a bicinchoninic acid (BCA) protein assay kit (Solarbio, Beijing, China) according to the manufacturer’s instructions. The concentrations of proinflammatory cytokines IL-1β, IL-6, and TNF-α in the serum and colon tissue were measured by ELISA (Jingmei Biotech, China) according to the manufacturers’ recommendations. MPO activity was measured using a myeloperoxidase assay kit (Jingmei Biotech, China).
(§1) Total RNAs of colon tissues were extracted using tissue RNA kit (Omega Biotek, China) following the manufacturer’s protocol. cDNA was obtained from RNA samples using ReverTra Ace qPCR RT Master Mix with gDNA Remover (TOYOBO, Japan). Quantitative real-time PCR was performed by Applied Biosystems® QuantStudio Q5 instrument (Thermo, USA) with SYBR qPCR Master Mix (Vazyme, China). The relative gene expression was measured and normalized to β-actin expression using 2^−ΔΔCt method.
(§2) For immunofluorescence staining, the frozen colon slides or cells were fixed in 4% paraformaldehyde, permeabilized with 0.1% Triton X-100, blocked non-specific proteins in 5% BSA/PBS for 1 h, and incubated overnight at 4 °C with Occludin, ZO-1 or p65 primary antibodies. The slides were then washed with phosphate buffer (PBS) and incubated with Dylight 488 labeling secondary antibody for 1 h at room temperature. Finally, the colon slides were stained with DAPI for 10 min, and then imaged and captured using ECHO microscope.

[2] = test system: NF-κB signaling in Raw264.7 cells; test: LPS-induced inflammation / NF-κB signaling in Raw264.7 macrophages; format: cell-based
Protocol: Raw264.7 cells and Caco-2 cells were obtained from the Cell Bank of the Chinese Academy of Sciences (Shanghai, China) and cultured in high-glucose DMEM medium supplemented with 10% fetal bovine serum (FBS) at 37 ℃ in a 5% CO2 atmosphere. Raw264.7 cells were seeded and incubated in six-well plates (8 × 10^5 cells/well) overnight, and then treated with different concentrations of MR2938 for 2 h. Then Raw264.7 cells were activated by lipopolysaccharide (LPS, 100 ng/mL, Sigma-Aldrich Co., Shanghai, CN) for 2 h or 6 h for transcription or protein level analysis.
as §1, §2
Total proteins were extracted with RIPA lysis buffer. After determining the protein concentration by the BCA assay kit, an equal amount of protein was subjected to SDS-PAGE and electro-transferred to a PVDF membrane. The membrane was immune detected with specific antibodies overnight at 4 °C. Proteins were quantified by Image J software. The target antibodies against p65, phosphorylated p65, IκBα, p-IκBα, TLR4, NLRP3, caspase-1, IL-1β, and β-actin were purchased from Proteintech or Cell Signaling Technology.

[3] = In vivo PK study in SD rats; settings: plasma, rat
Protocol: MR2938 was synthesized in-house following previously reported procedure (Lv et al. [2023]), and confirmed by NMR and HPLC chromatography (purity > 95%). To detect the pharmacokinetic characters of MR2938 in the plasma, the SD rats were orally and intravenous (i.v.) administered with MR2938 at a dose of 10 mg/kg and 3 mg/kg, respectively. The vehicle consisted of 10% DMSO, 30% saline, and 60% PEG400. Plasma samples were collected at 5 min, 15 min, 30 min and 1 h, 2 h, 4 h, 6 h, 8 h, 12 h, and 24 h after administration. After analyzing the concentration of MR2938 via LC–MS, the values of Cmax, Tmax, T1/2, Cl, AUClast, and AUCInf were calculated (Hu et al. [2018]). The bioavailability of MR2938 from the p.o. was calculated by comparing the area under the concentration–time curve (AUCInf) for the […] dose and that for the i.v. dose.

[4] = Brain permeability in mice after i.p. administration; format: in vivo, mouse; settings: n=3
Protocol: Table S2. Concentration of MR2938 in brain after its i.p. administration (6.5 mg/kg)

Caco-2 cells = test: LPS-induced tight junction disruption in Caco-2 cells (immunofluorescence); format: cell-based
Protocol: Caco-2 cells were seeded and incubated in 24-well plates (1 × 10^5 cells/well) for 48 h and treated with 10 μmol/L of MR2938 for 2 h. Then 100 ng/mL of LPS was added for 24 h to induce tight function disruption.
as §2

AChE = test system: AChE; set-up: method as in Lv et al. 2023; settings: ref Lv et al. 2023; cited from earlier work
NO production = test system: NO production; set-up: method as in Lv et al. 2023; settings: ref Lv et al. 2023; cited from earlier work
[5] = test system: proinflammatory cytokines mRNA; set-up: method as in Lv et al. 2023; settings: 2.5 μmol/L; ref Lv et al. 2023; cited from earlier work

## Nc1ccc(O)c(C(=O)O)c1 [5-ASA, 5-aminosalicylic acid, reference compound]
[1]; 3% DSS
  body weight: marked improvement

## O=C(c1ccc(Nc2nccc(-c3cc4ccccc4s3)n2)cc1)N1CCC(N2CCCC2)CC1 [IKK16, reference compound]
[2]; western blot, NF-κB pathway blocked
  LPS-elevated expression level of NLRP3: obviously decreased

## COc1cc(OC)c2c(=O)[nH]c(-c3ccc(N4CCN(C)CC4)cc3)nc2c1 [MR2938]
[3]; iv, 3 mg/kg i.v., mean n = 3
  AUC(0-inf): 1070 ng·h/mL
  AUC(0-t): 1060 ng·h/mL
  Cmax: 1030 ng/mL
  half-life: 2.25 h
[3]; iv, 3 mg/kg i.v., mean n = 3, read-out: Cl (plasma clearance)
  clearance: 47.2 mL/min/kg
[3]; oral, 10 mg/kg p.o. vs 3 mg/kg i.v., from AUCInf, read-out: F (oral bioavailability)
  bioavailability: 59%
[3]; po, 10 mg/kg p.o., mean n = 3
  AUC(0-inf): 2110 ng·h/mL
  AUC(0-t): 2080 ng·h/mL
  Cmax: 592 ng/mL
  Tmax: 0.667 h
  half-life: 2.87 h
[4]; i.p. 6.5 mg/kg (145 μg)
  Amount in brain: 236.7 ng
[4]; i.p. 6.5 mg/kg
  Concentration in brain: 222.07 ng/g
[1]; 100 mg/kg
  Occludin and ZO-1 proteins in colon (immunofluorescence), comparison with 5-ASA: as effective as 5-ASA
[1]; 100 mg/kg vs colitis group, no statistical difference
  mRNA levels of Occludin, ZO-1 and claudin-1 in colon: upregulated
[1]; 3% DSS, 100 mg/kg oral, similar to control group, significantly longer than 5-ASA group
  colon length (shortening): greatly relieved
[1]; 3% DSS
  body weight: marked improvement
[1]; 3% DSS, oral administration
  inflammatory cell infiltration, mucosal damage and overall colonic damage score (HE histology): obvious attenuation
[1]; DSS-induced
  concentration of MPO in colon: slight decrease
  concentration of MPO in serum: slight decrease
[1]; ELISA, colon tissue
  colonic level of IL-1β: decreased
  colonic level of TNF-α: decreased
[1]; ELISA, 50 mg/kg and 100 mg/kg
  IL-1β in mouse serum: significant decrease
  TNF-α in mouse serum: significant decrease
[1]; ELISA, 50 mg/kg group compared with 100 mg/kg group
  serum IL-6 level: no statistical difference between the two groups
[1]; RT-qPCR
  gene transcription of IL-1β in colon: noticeably inhibited
  gene transcription of TNF-α in colon: noticeably inhibited
[1]; RT-qPCR, 100 mg/kg, compared with 5-ASA
  transcription of IL-6 in colon: more favorable effects on the transcription of IL-6 than 5-ASA
[1]; colitis group vs treatment group
  GPx in colon: no significant difference
[1]; dose-dependent, 50 and 100 mg/kg
  Occludin and ZO-1 proteins in colon (immunofluorescence): partially alleviate the depletion
[1]; similar to control group
  mucin-secreting goblet cells in colonic epithelia (Alcian blue staining): rescued the differentiation of mucin-producing goblet cells
[1]; treatment group vs control groups
  organ indexes of mice: no obvious differences
[1]; vs DSS group
  production of MDA in colon: significantly suppressed
Caco-2 cells; 10 μmol/L, LPS 100 ng/mL stimulated
  expression of Occludin and ZO-1: able to rescue expression levels
Caco-2 cells; MR2938 alone, without LPS
  Occludin and ZO-1 protein levels: little changes
[2]; 10 μM pre-treatment, LPS activation, immunofluorescence
  NF-κB fluorescence intensity / subcellular location: dropped and was mostly accumulated in the cytoplasm
[2]; LPS stimulated, western blot
  total p65: slightly downregulated
[2]; LPS stimulated, western blot, dose-dependent
  phosphorylation of IκBα and p65: effectively inhibited
[2]; LPS stimulated, decrease did not correlate to concentration
  expression of TLR4: reduced
[2]; qPCR and western blot, vs LPS stimulated
  expressions of IL-1β, NLRP3 and caspase-1 (mRNA and protein): significantly reduced
AChE
  IC50: 5.04 µM
NO production
  IC50: 3.29 µM
[5]
  mRNA level of proinflammatory cytokines: significantly decreased
